# Experimental data taken from US6528655B1, “Aromatic derivatives with HIV integrase inhibitory properties” (Pharmacor, Inc., priority 2000, dated 2003).
# Like-named read-outs stand apart in the source and are kept apart here.
# Target: HIV-1 integrase (Human immunodeficiency virus type 1 group M subtype B, UniProt P04585)
# Assay: HIV-1 integrase inhibition assay (radiolabeled duplex substrate corresponding to the U5 end of the HIV LTR)
# Type: biochemical
# Procedure: For the purpose of Table 1 to 4, the HIV-1 integrase inhibition assay was carried out following a known procedure (Burke, Jr. T. R. et al., J. Med. Chem. 38, 4171-4178 (1995)). A suitable radiolabeled duplex substrate corresponding to the U5 end of the HIV LTR was used.
# For the purposes of Table 1 to 4 the HIV-1 integrase inhibition assay was based on a known procedure (Hazuda, D. J. et al., Nucleic Acids Res. 22 1121-1122 (1994)).
# [1] = Table 1, compounds of formula II′, read-out: IC50
Compound,IC50 [nM],IC50 [1] [nM]
"O=C(C[C@H](NC(=O)c1ccc(O)c(O)c1)C(=O)NCCc1ccc(O)c(O)c1)OC1CCCCC1 [Example 1, N-[Nα-(3,4-Dihydroxybenzoyl)-Oγ-cyclohexyl-L-aspartyl]dopamine]",34000,–
"Nc1cc(C(=O)N[C@H](Cc2cn(C(c3ccccc3)(c3ccccc3)c3ccccc3)cn2)C(=O)NCCc2ccc(O)c(O)c2)ccc1O [Example 2, N-[Nα-(3-Amino-4-hydroxybenzoyl)-Nτ-trityl-D-histidinyl]dopamine]",> 5000,–
"O=C(NCCCC[C@H](NC(=O)c1ccc(O)c(O)c1)C(=O)O)c1ccc(O)c(O)c1 [Example 3, Nα,Nε-di-(3,4-Dihydroxybenzoyl)-L-lysine]",14000,–
"O=C(N[C@@H](Cc1ccc(O)cc1)C(=O)NCCc1ccc(O)c(O)c1)c1cnc(O)nc1O [Example 4, N-[Nα-(2,4-Dihydroxypyrimidinyl-5-carbonyl)-L-tyrosyl]dopamine]",> 10000,–
"O=C(/C=C/c1ccc(O)c(O)c1)NCCCC[C@H](NC(=O)/C=C/c1ccc(O)c(O)c1)C(=O)NCCc1ccc(O)c(O)c1 [Example 5, N-(Nα,Nε-Dicaffeoyl-L-lysyl)dopamine]",510,–
"O=C(/C=C/c1ccc(O)c(O)c1)NCCCC[C@H](NC(=O)/C=C/c1ccc(O)c(O)c1)C(=O)OCc1ccccc1 [Example 6, Nα,Nε-Dicaffeoyl-L-lysine Benzyl Ester]",2700,–
"C[C@@H](OCc1ccccc1)[C@H](NC(=O)c1ccc(O)c(O)c1)C(=O)NCCc1ccc(O)c(O)c1 [Example 9, N-[Nα-(3,4-Dihydroxybenzoyl)-O-benzyl-L-threonyl]dopamine]",> 5000,–
"O=C(/C=C/c1ccc(O)c(O)c1)NCCC[C@H](NC(=O)/C=C/c1ccc(O)c(O)c1)C(=O)NCCc1ccc(O)c(O)c1 [Example 11, N-(Nα,Nδ-Dicaffeoyl-L-ornithyl)dopamine]",870,–
"O=C(/C=C/c1ccc(O)c(O)c1)N[C@@H](CSC(c1ccccc1)(c1ccccc1)c1ccccc1)C(=O)NCCc1ccc(O)c(O)c1 [Example 12, N-(Nα-Caffeoyl-S-trityl-L-cysteinyl)dopamine]",472,–
"O=C(C=Cc1ccc(O)c(O)c1)NC(Cc1cn(C(c2ccccc2)(c2ccccc2)c2ccccc2)cn1)C(=O)NCCc1ccc(O)c(O)c1 [Example 13, N-(Nα-Caffeoyl-Nτ-trityl-L-histidinyl)dopamine]",369,–
"O=C(N[C@@H](Cc1cn(C(c2ccccc2)(c2ccccc2)c2ccccc2)cn1)C(=O)NCCc1ccc(O)c(O)c1)c1ccc(O)c(O)c1 [Example 14, N-[Nα-(3,4-Dihydroxybenzoyl)-Nτ-trityl-L-histidinyl]dopamine]",65,–
"O=C(N[C@@H](Cc1ccc(O)c(O)c1)C(=O)NCCc1ccc(O)c(O)c1)c1ccc(O)c([N+](=O)[O-])c1 [Example 15, N-[Nα-(4-Hydroxy-3-nitrobenzoyl)-L-3,4-dihydroxyphenylalanyl]dopamine]",433,–
"O=C(N[C@H](Cc1cn(C(c2ccccc2)(c2ccccc2)c2ccccc2)cn1)C(=O)NCCc1ccc(O)c(O)c1)c1ccc(O)c(O)c1 [Example 16, N-[Nα-(3,4-Dihydroxybenzoyl)-Nτ-trityl-D-histidinyl]dopamine]",155,–
"O=C(N[C@@H](Cc1cn(C(c2ccccc2)(c2ccccc2)c2ccccc2)cn1)C(=O)NCCc1ccc(O)c(O)c1)c1ccc(O)c([N+](=O)[O-])c1 [Example 17, N-[Nα-(4-Hydroxy-3-nitrobenzoyl)-Nτ-trityl-L-histidinyl]dopamine]",1600,–
"O=C(N[C@H](Cc1cn(C(c2ccccc2)(c2ccccc2)c2ccccc2)cn1)C(=O)NCCc1ccc(O)c(O)c1)c1ccc(O)c([N+](=O)[O-])c1 [Example 18, N-[Nα-(4-Hydroxy-3-nitrobenzoyl)-Nτ-trityl-D-histidinyl]dopamine]",562,–
"O=C(C=Cc1ccc(O)c(O)c1)NC(Cc1cn(-c2ccc([N+](=O)[O-])cc2[N+](=O)[O-])cn1)C(=O)NCCc1ccc(O)c(O)c1 [Example 19, N-[Nα-Caffeoyl-Nτ-(2,4-dinitrophenyl)-L-histidinyl]dopamine]",560,–
"Nc1ccc(C(=O)N[C@@H](Cc2ccc(O)c(O)c2)C(=O)O)cc1O [Example 20, Nα-(4-Amino-3-hydroxybenzoyl)-L-3,4-dihydroxyphenylalanine]",> 5000,–
"O=C(N[C@@H](Cc1cn(-c2ccc([N+](=O)[O-])cc2[N+](=O)[O-])cn1)C(=O)NCCc1ccc(O)c(O)c1)c1ccc(O)c(O)c1 [Example 21, N-[Nα-(3,4-Dihydroxybenzoyl)-Nτ-(2,4-dinitrophenyl)-L-histidinyl]dopamine]",151,–
"O=C(N[C@@H](Cc1cn(-c2ccc([N+](=O)[O-])cc2[N+](=O)[O-])cn1)C(=O)NCc1ccc(O)c(O)c1)c1ccc(O)c(O)c1 [Example 23, N-[Nα-(3,4-Dihydroxybenzoyl)-Nτ-(2,4-dinitrophenyl)-L-histidinyl]-3,4-dihydroxybenzylamine]",262,–

Compound,IC50 [nM],IC50 [1] [nM]
"CC(C)(C)OC(=O)N[C@@H](Cc1cn(-c2ccc([N+](=O)[O-])cc2[N+](=O)[O-])cn1)C(=O)NCc1ccc(O)c(O)c1 [Example 24, N-[Nα-tert-Butoxycarbonyl-Nτ-(2,4-dinitrophenyl)-L-histidinyl]-3,4-dihydroxybenzylamine]",> 5000,–
"O=C(N[C@@H](Cc1cn(C(c2ccccc2)(c2ccccc2)c2ccccc2)cn1)C(=O)NCc1ccc(O)c(O)c1)c1ccc(O)c(O)c1 [Example 25, N-[Nα-(3,4-Dihydroxybenzoyl)-Nτ-trityl-L-histidinyl]-3,4-dihydroxybenzylamine]",> 1000,–
"Cc1ccc(C(NC(=O)CC[C@H](NC(=O)c2ccc(O)c([N+](=O)[O-])c2)C(=O)NCc2ccc(O)c(O)c2)(c2ccccc2)c2ccccc2)cc1 [Example 26, N-[Nα-(4-Hydroxy-3-nitrobenzoyl)-Nδ-methyltrityl-L-glutaminyl]-3,4-dihydroxybenzylamine]",533,–
"O=C(CCc1ccc(O)c(O)c1)N[C@@H](Cc1cn(C(c2ccccc2)(c2ccccc2)c2ccccc2)cn1)C(=O)NCCc1ccc(O)c(O)c1 [Example 27, N-(Nα-Dihydrocaffeoyl-Nτ-trityl-L-histidinyl)dopamine]",> 5000,–
"Cc1ccc(C(c2ccccc2)(c2ccccc2)n2cnc(C[C@H](NC(=O)CCc3ccc(O)c(O)c3)C(=O)NCCc3ccc(O)c(O)c3)c2)cc1 [Example 28, N-(Nα-Dihydrocaffeoyl-Nτ-methyltrityl-L-histidinyl)dopamine]",–,713
"O=C(N[C@@H](Cc1cn(C(c2ccccc2)(c2ccccc2)c2ccccc2)cn1)C(=O)O)c1ccc(O)c(O)c1 [Example 29, Nα-(3,4-Dihydroxybenzoyl)-Nτ-trityl-L-histidine]",1600,–
"O=C(C=Cc1ccc(O)c(O)c1)NC(Cc1cn(C(c2ccccc2)(c2ccccc2)c2ccccc2)cn1)C(=O)NCc1ccc(O)c(O)c1 [Example 31, N-(Nα-Caffeoyl-Nτ-trityl-L-histidinyl)-3,4-dihydroxybenzylamine]",364,–
"Cc1ccc(C(NC(=O)CC[C@H](NC(=O)c2ccc(O)c(O)c2)C(=O)NCc2ccc(O)c(O)c2)(c2ccccc2)c2ccccc2)cc1 [Example 32, N-[Nα-(3,4-Dihydroxybenzoyl)-Nδ-methyltrityl-L-glutaminyl]-3,4-dihydroxybenzylamine]",256,–
"Cc1ccc(C(NC(=O)CC[C@H](NC(=O)/C=C/c2ccc(O)c(O)c2)C(=O)NCc2ccc(O)c(O)c2)(c2ccccc2)c2ccccc2)cc1 [Example 33, N-(Nα-Caffeoyl-Nδ-methyltrityl-L-glutaminyl)-3,4-dihydroxybenzylamine]",155,–
"O=C(N[C@@H](COCc1ccccc1)C(=O)NCCc1ccc(O)c(O)c1)c1ccc(O)c([N+](=O)[O-])c1 [Example 34, N-[Nα-(4-Hydroxy-3-nitrobenzoyl)-O-benzyl-L-seryl]dopamine]",1800,–
"O=C(/C=C/c1cccc([N+](=O)[O-])c1)N[C@@H](Cc1cn(C(c2ccccc2)(c2ccccc2)c2ccccc2)cn1)C(=O)NCCc1ccc(O)c(O)c1 [Example 35, N-(Nα-(3-Nitrocinnamoyl)-Nτ-trityl-L-histidinyl)dopamine]",1200,–
"Cc1ccc(C(c2ccccc2)(c2ccccc2)n2cnc(C[C@H](NC(=O)c3ccc(O)c([N+](=O)[O-])c3)C(=O)NCCc3ccc(O)c(O)c3)c2)cc1 [Example 36, N-[Nα-(4-Hydroxy-3-nitrobenzoyl)-Nτ-methyltrityl-L-histidinyl]dopamine]",–,575
"O=C(NCCCC[C@H](NC(=O)c1c(O)cc(O)cc1O)C(=O)NCCc1ccc(O)c(O)c1)OCc1ccccc1 [Example 37, N-[Nα-(2,4,6-Trihydroxybenzoyl)-Nε-benzyloxycarbonyl-L-lysyl]dopamine]",1600,–
"O=C(N[C@@H](CSC(c1ccccc1)(c1ccccc1)c1ccccc1)C(=O)NCCc1ccc(O)c(O)c1)c1c(O)cccc1F [Example 38, N-[Nα-(2-Fluoro-6-Hydroxybenzoyl)-S-trityl-L-cysteinyl]dopamine]",1400,–
"O=C(N[C@@H](Cc1cn(C(c2ccccc2)(c2ccccc2)c2ccccc2)cn1)C(=O)NCCc1ccc(O)c(O)c1)c1cc(O)c(O)c(O)c1 [Example 39, N-[Nα-(3,4,5-Trihydroxybenzoyl)-Nτ-trityl-L-histidinyl]dopamine]",222,–
"O=C(C=Cc1ccc(O)c(O)c1)NC(Cc1cn(Cc2ccccc2)cn1)C(=O)NCCc1ccc(O)c(O)c1 [Example 40, N-(Nα-Caffeoyl-Nτ-benzyl-L-histidinyl)dopamine]",836,–
"O=C(C=Cc1ccc([N+](=O)[O-])cc1)NC(Cc1cn(C(c2ccccc2)(c2ccccc2)c2ccccc2)cn1)C(=O)NCCc1ccc(O)c(O)c1 [Example 41, N-(Nα-(4-Nitrocinnamoyl)-Nτ-trityl-L-histidinyl)dopamine]",1140,–
"CC(C)(C)OC[C@H](NC(=O)/C=C/c1ccc(O)c(O)c1)C(=O)NCCc1ccc(O)c(O)c1 [Example 42, N-(Nα-Caffeoyl-O-tert-butyl-L-seryl)dopamine]",442,–
